Results: patent publication US9737545B2 (MERCK SHARP & DOHME CORP., priority 2013, dated 2017)

These compounds were tested against T1, wildtype HIV-1 protease (Human immunodeficiency virus type 1 group M subtype B, UniProt P04585) (assay: Assay for Inhibition of Microbial Expressed HIV Protease (Pepcleav)).
T1 construct: preincubated with the HIV-1 protease (wild type) enzyme in assay buffer; made in house; host or cells: Escherichia coli
Format: biochemical
Protocol: Assay for Inhibition of Microbial Expressed HIV Protease (“Pepcleav”)
Studies of the inhibition of the wildtype HIV-1 protease (which was expressed in Escherichia coli) were carried out with a peptide substrate [Val-Ser-Gln-Asn-(βnaphthyl)Ala-Pro-Ile-Val (SEQ ID NO: 1)]. The inhibitor was first preincubated with the HIV-1 protease (wild type) enzyme in assay buffer (50 mM sodium acetate, pH 5.5, 100 mM NaCl, and 0.1% BSA) for 30 minutes at room temperature. Substrate was added to 400 micromolar in a total volume of 20 microliters containing 20 picomolar HIV-1 protease (final) and the reaction was incubated for 1 hour at 30° C. The reaction was quenched with the addition of formic acid and indinavir to 0.012% and 150 nM final concentrations, respectively. The product formation was determined after separation of product and substrate on a Zorbax Eclipse XDB-C18 column connected to an API 4000 mass spectrometer (Applied Biosystems) with multiple reaction monitoring (transitions were 644.5/428.9 and 615.4/422.2 (M1/M3) for product and indinavir respectively). The extent of inhibition of the reaction was determined from the peak area of the products. Analysis of the products, independently synthesized, provided quantitation standards and confirmation of the product composition.
Compound `COC(=O)N[C@H](C(=O)Nc1cnccc1CC[C@@H]1CN[C@H](c2nc3cc(C)c(C)cc3[nH]2)CO1)C(c1ccccc1)c1ccccc1` [Example 32, methyl N-[(1S)-1-benzhydryl-2-[[4-[2-[(2R,5R)-5-(5,6-dimethyl-1H-benzimidazol-2-yl)morpholin-2-yl]ethyl]-3-pyridyl]amino]-2-oxo-ethyl]carbamate] has an IC50 of 0.04 nM.
`Cc1cc2nc([C@@H]3CO[C@H](CCc4c(F)cncc4NC(=O)C4(Cc5ccccc5Cl)CC4)CN3)[nH]c2cc1C` [Example 33] gave an IC50 of 4.08 nM.
Work on `Cc1cc2nc([C@@H]3CO[C@H](CCc4cc[nH]c(=O)c4NC(=O)[C@@H](N)C(c4ccccc4)c4ccccc4)CN3)[nH]c2cc1C` [Example 34, N-(4-{2-[(2R,5R)-5-(5,6-dimethyl-1H-benzimidazol-2-yl)morpholin-2-yl]ethyl}-2-oxo-1,2-dihydropyridin-3-yl)-β-phenyl-L-phenylalaninamide] yielded an IC50 of 0.168 nM.
With `COC(=O)N[C@H](C(=O)Nc1c(CC[C@@H]2CN[C@H](c3nc4cc(C)c(C)cc4[nH]3)CO2)cc[nH]c1=O)C(c1ccccc1)c1ccccc1` [Example 35, methyl N-[(1S)-1-benzhydryl-2-[[4-[2-[(2R,5R)-5-(5,6-dimethyl-1H-benzimidazol-2-yl)morpholin-2-yl]ethyl]-2-oxo-1H-pyridin-3-yl]amino]-2-oxo-ethyl]carbamate] the IC50 was 0.159 nM.
With `COC(=O)N[C@H](C(=O)Nc1ccccc1CC[C@@H]1CN[C@H](c2nnc(C)[nH]2)CO1)C(c1ccccc1)c1ccccc1` [Example 36, Nα-(methoxycarbonyl)-N-[2-(2-{(2R,5R)-5-[(5-methyl-4H-1,2,4-triazol-3-yl)]morpholin-2-yl}ethyl)phenyl]-β-phenyl-L-phenylalaninamide] the IC50 was 16.5 nM.
For `COC(=O)N[C@H](C(=O)Nc1ccccc1CC[C@@H]1CN[C@H](C#N)CO1)C(c1ccccc1)c1ccccc1` [Example 37, methyl [(1S)-2-[(2-{2-[(2R,5R)-5-cyanomorpholin-2-yl]ethyl}phenyl)amino]-1-(diphenylmethyl)-2-oxoethyl]carbamate], the IC50 was 246 nM.
With `COC(=O)N[C@H](C(=O)Nc1ccccc1CC[C@@H]1CN[C@H](c2nnn[nH]2)CO1)C(c1ccccc1)c1ccccc1` [Example 38, Nα-(methoxycarbonyl)-β-phenyl-N-(2-{2-[(2R,5R)-5-(1H-tetrazol-5-yl)morpholin-2-yl]ethyl}phenyl)-L-phenylalaninamide] the IC50 was 2 nM.
Compound `COC(=O)N[C@H](C(=O)Nc1ccccc1CC[C@@H]1CN[C@H](c2nnnn2Cc2ccccc2)CO1)C(c1ccccc1)c1ccccc1` [Example 39, methyl [(1S)-2-[(2-{2-[(2R,5R)-5-(1-benzyl-1H-tetrazol-5-yl)morpholin-2-yl]ethyl}phenyl)amino]-1-(diphenylmethyl)-2-oxoethyl]carbamate] has an IC50 of 653 nM.
`COC(=O)N[C@H](C(=O)Nc1ccccc1CC[C@@H]1CN[C@H](c2ncon2)CO1)C(c1ccccc1)c1ccccc1` [Example 41, methyl {(1S)-1-(diphenylmethyl)-2-[(2-{2-[(2R,5R)-5-(1,2,4-oxadiazol-3-yl)morpholin-2-yl]ethyl}phenyl)amino]-2-oxoethyl}carbamate] gave an IC50 of 304 nM.
`COC(=O)N[C@H](C(=O)Nc1ccccc1CC[C@@H]1CN[C@H](c2ncc[nH]2)CO1)C(c1ccccc1)c1ccccc1` [Example 42] was tested, and the IC50 was 2.62 nM.
For `COC(=O)N[C@H](C(=O)Nc1ccccc1CC[C@@H]1CN[C@H](c2ncc(C)[nH]2)CO1)C(c1ccccc1)c1ccccc1` [Example 43, methyl {(1S)-1-(diphenylmethyl)-2-[(2-{2-[(2R,5R)-5-(5-methyl-1H-imidazol-2-yl)morpholin-2-yl]ethyl}phenyl)amino]-2-oxoethyl}carbamate], the IC50 was 1.02 nM.
`COC(=O)N[C@H](C(=O)Nc1ccccc1CC[C@@H]1CN[C@H](c2ncc(Cc3ccccc3)[nH]2)CO1)C(c1ccccc1)c1ccccc1` [Example 44, N-(2-{2-[(2R,5R)-5-(5-benzyl-1H-imidazol-2-yl)morpholin-2-yl]ethyl}phenyl)-Nα-(methoxycarbonyl)-β-phenyl-L-phenylalaninamide] showed an IC50 of 0.568 nM.
Work on `COC(=O)N[C@H](C(=O)Nc1ccccc1CC[C@@H]1CN[C@H](c2ncc(-c3ccccc3)[nH]2)CO1)C(c1ccccc1)c1ccccc1` [Example 45, Nα-(methoxycarbonyl)-β-phenyl-N-(2-{2-[(2R,5R)-5-(5-phenyl-1H-imidazol-2-yl)morpholin-2-yl]ethyl}phenyl)-L-phenylalaninamide] yielded an IC50 of 0.041 nM.
`COC(=O)N[C@H](C(=O)Nc1ccccc1CC[C@@H]1CN[C@H](c2cnc(-c3ccccc3)[nH]2)CO1)C(c1ccccc1)c1ccccc1` [Example 46, Nα-(methoxycarbonyl)-β-phenyl-N-(2-{2-[(2R,5R)-5-(2-phenyl-1H-imidazol-5-yl)morpholin-2-yl]ethyl}phenyl)-L-phenylalaninamide] gave an IC50 of 841 nM.
For `COC(=O)N[C@H](C(=O)Nc1ccccc1CC[C@@H]1CN[C@H](c2cnc(C)[nH]2)CO1)C(c1ccccc1)c1ccccc1` [Example 47, Nα-(methoxycarbonyl)-N-(2-{2-[(2R,5R)-5-(2-methyl-1H-imidazol-5-yl)morpholin-2-yl]ethyl}phenyl)-β-phenyl-L-phenylalaninamide], the IC50 was 378 nM.
`COC(=O)N[C@H](C(=O)Nc1ccccc1CC[C@@H]1CN[C@H](c2nc(C)c(C)[nH]2)CO1)C(c1ccccc1)c1ccccc1` [Example 48, N-(2-{2-[(2R,5R)-5-(4,5-dimethyl-1H-imidazol-2-yl)morpholin-2-yl]ethyl}phenyl)-Nα-(methoxycarbonyl)-β-phenyl-L-phenylalaninamide] showed an IC50 of 1.81 nM.
With `C#C[C@@H]1CO[C@H](CCc2ccccc2NC(=O)[C@@H](NC(=O)OC)C(c2ccccc2)c2ccccc2)CN1` [Example 49, N-(2-{2-[(2R,5R)-5-ethynylmorpholin-2-yl]ethyl}phenyl)-Nα-(methoxycarbonyl)-β-phenyl-L-phenylalaninamide] the IC50 was 824 nM.
With `COC(=O)N[C@H](C(=O)Nc1ccccc1CC[C@@H]1CN[C@H](c2cn(Cc3ccccc3)nn2)CO1)C(c1ccccc1)c1ccccc1` [Example 50, N-(2-{2-[(2R,5R)-5-(1-benzyl-1H-1,2,3-triazol-4-yl)morpholin-2-yl]ethyl}phenyl)-Nα-(methoxycarbonyl)-β-phenyl-L-phenylalaninamide] the IC50 was 36.3 nM.
In the case of `COC(=O)N[C@H](C(=O)Nc1ccccc1CC[C@@H]1CN[C@H](c2cnnn2Cc2ccccc2)CO1)C(c1ccccc1)c1ccccc1` [Example 51, N-(2-{2-[(2R,5R)-5-(1-benzyl-1H-1,2,3-triazol-5-yl)morpholin-2-yl]ethyl}phenyl)-Nα-(methoxycarbonyl)-β-phenyl-L-phenylalaninamide], the IC50 is reported as 576 nM.
For `COC(=O)N[C@H](C(=O)Nc1ccccc1CC[C@@H]1CN[C@H](c2cnn[nH]2)CO1)C(c1ccccc1)c1ccccc1` [Example 52, Nα-(methoxycarbonyl)-β-phenyl-N-(2-{2-[(2R,5R)-5-(1H-1,2,3-triazol-5-yl)morpholin-2-yl]ethyl}phenyl)-L-phenylalaninamide], the IC50 was 250 nM.
`COC(=O)N[C@H](C(=O)Nc1ccccc1CC[C@@H]1CN[C@H](c2cc3ccccc3[nH]2)CO1)C(c1ccccc1)c1ccccc1` [Example 53, N-(2-{2-[(2R,5R)-5-(1H-indol-2-yl)morpholin-2-yl]ethyl}phenyl)-Nα-(methoxycarbonyl)-β-phenyl-L-phenylalaninamide] was tested, and the IC50 was 44.4 nM.
